Tests used:
barley [1] = assay: Test B preemergence/postemergence greenhouse plant response rating 0 to 10; type: in vivo, Hordeum vulgare; conditions: 0 to 10 scale
Outline: (§1)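 Test chemicals, dissolved in a non-phytotoxic solvent, were applied to soil at planting and, at the same time, over foliage of seedlings at the one to four leaf stage.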

blackgrass = assay: as above; type: in vivo, Alopecurus myosuroides; conditions: 0 to 10 scale
Outline: as §1

cheatgrass = assay: as above; type: in vivo, Bromus secalinus; conditions: 0 to 10 scale
Outline: as §1

crabgrass = assay: as above; type: in vivo, Digitaria spp.; conditions: 0 to 10 scale
Outline: as §1

giant foxtail = assay: as above; type: in vivo, Setaria faberii; conditions: 0 to 10 scale
Outline: as §1

lambsquarters [2] = assay: as above; type: in vivo, Chenopodium album; conditions: 0 to 10 scale
Outline: as §1

rape = assay: as above; type: in vivo, Brassica napus; conditions: 0 to 10 scale
Outline: as §1

soybean [3] = assay: as above; type: in vivo, Glycine max; conditions: 0 to 10 scale
Outline: as §1

velvetleaf = assay: as above; type: in vivo, Abutilon theophrasti; conditions: 0 to 10 scale
Outline: as §1

purple nutsedge = assay: as above; type: in vivo, Cyperus rotundus; conditions: Rate 50 g/ha, 0 to 10 scale
Outline: as §1

barley [4] = assay: Test C preemergence/postemergence greenhouse plant response rating 0 to 100; type: in vivo, Hordeum vulgare; conditions: POSTEMERGENCE
Outline: (§2)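 Compounds in non-phytotoxic solvent applied preemergence to sandy loam one day after planting, postemergence at the 1–4 leaf stage, or to ~2.5 cm floodwater over silt loam.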

chickweed = assay: as above; type: in vivo, Stellaria media; conditions: POSTEMERGENCE
Outline: as §2

lambsquarters [5] = assay: as above; type: in vivo, Chenopodium album; conditions: POSTEMERGENCE
Outline: as §2

pigweed = assay: as above; type: in vivo, Amaranthusretroflexus; conditions: POSTEMERGENCE
Outline: as §2

ryegrass = assay: as above; type: in vivo, Lolium multiflorum; conditions: POSTEMERGENCE
Outline: as §2

soybean [6] = assay: as above; type: in vivo, Glycine max; conditions: POSTEMERGENCE
Outline: as §2

sugar beet = assay: as above; type: in vivo, Beta vulgaris; conditions: POSTEMERGENCE
Outline: as §2

wild buckwheat = assay: as above; type: in vivo, Polygonum convolvulus; conditions: POSTEMERGENCE
Outline: as §2

C#CCN1C(=O)COc2cc(F)c(-c3nn4c(c3Cl)CCCC4)cc21 [Compound 34]
75: Plant response rating (0 to 100), Chickweed (chickweed; Rate 1 g/ha) | Plant response rating (0 to 100), Chickweed (chickweed; Rate 4 g/ha)
3: Plant response rating, Cheatgrass (cheatgrass; PREEMERGENCE, Rate 10 g/ha) | Plant response rating, Crabgrass (crabgrass; POSTEMERGENCE, Rate 10 g/ha) | Plant response rating, Crabgrass (crabgrass; PREEMERGENCE, Rate 10 g/ha) | Plant response rating, Giant foxtail (giant foxtail; PREEMERGENCE, Rate 10 g/ha)
100: Plant response rating, Chickweed (chickweed; 62 g/ha, 0 to 100 scale) | Plant response rating (0 to 100), Chickweed (chickweed; Rate 16 g/ha) | Plant response rating Lambsquarters (lambsquarters [5]; 62 g/ha, 0 to 100 scale) | Plant response rating (0 to 100), Lambsquarters (lambsquarters [5]; Rate 4 g/ha) | Plant response rating (0 to 100), Lambsquarters (lambsquarters [5]; Rate 16 g/ha) | Plant response rating Pigweed (pigweed; 62 g/ha, 0 to 100 scale) | Plant response rating (0 to 100), Pigweed (pigweed; Rate 4 g/ha) | Plant response rating (0 to 100), Pigweed (pigweed; Rate 16 g/ha) | Plant response rating, Soybean (soybean [6]; 62 g/ha, 0 to 100 scale) | Plant response rating (0 to 100), Soybean (soybean [6]; Rate 16 g/ha) | Plant response rating, Sugar beet (sugar beet; 62 g/ha, 0 to 100 scale) | Plant response rating (0 to 100), Sugar beet (sugar beet; Rate 16 g/ha) | Plant response rating, Wild buckwheat (wild buckwheat; 62 g/ha, 0 to 100 scale) | Plant response rating (0 to 100), Wild buckwheat (wild buckwheat; Rate 16 g/ha)
2: Plant response rating, Barley (barley [1]; PREEMERGENCE, Rate 50 g/ha)
6: Plant response rating, Blackgrass (blackgrass; POSTEMERGENCE, Rate 50 g/ha) | Plant response rating, Blackgrass (blackgrass; PREEMERGENCE, Rate 50 g/ha) | Plant response rating, Cheatgrass (cheatgrass; PREEMERGENCE, Rate 50 g/ha) | Plant response rating, Giant foxtail (giant foxtail; PREEMERGENCE, Rate 50 g/ha) | Plant response rating, Rape (rape; PREEMERGENCE, Rate 50 g/ha) | Plant response rating, Soybean (soybean [3]; PREEMERGENCE, Rate 50 g/ha)
50: Plant response rating (0 to 100), Soybean (soybean [6]; Rate 1 g/ha) | Plant response rating (0 to 100), Wild buckwheat (wild buckwheat; Rate 4 g/ha)
90: Plant response rating (0 to 100), Pigweed (pigweed; Rate 1 g/ha)
8: Plant response rating, Soybean (soybean [3]; POSTEMERGENCE, Rate 10 g/ha)
1: Plant response rating, Velvetleaf (velvetleaf; POSTEMERGENCE, Rate 50 g/ha)
0: Plant response rating, Barley (barley [1]; PREEMERGENCE, Rate 10 g/ha) | Plant response rating, Nutsedge (purple nutsedge; POSTEMERGENCE) | Plant response rating, Nutsedge (purple nutsedge; PREEMERGENCE)
10: Plant response rating, Lambsquarter (lambsquarters [2]; POSTEMERGENCE, Rate 50 g/ha) | Plant response rating, Lambsquarter (lambsquarters [2]; PREEMERGENCE, Rate 50 g/ha) | Plant response rating, Rape (rape; POSTEMERGENCE, Rate 10 g/ha) | Plant response rating, Rape (rape; POSTEMERGENCE, Rate 50 g/ha) | Plant response rating, Soybean (soybean [3]; POSTEMERGENCE, Rate 50 g/ha) | Plant response rating, Velvetleaf (velvetleaf; POSTEMERGENCE, Rate 10 g/ha) | Plant response rating, Velvetleaf (velvetleaf; PREEMERGENCE, Rate 50 g/ha) | Plant response rating (0 to 100), Ryegrass (ryegrass; Rate 1 g/ha)
70: Plant response rating (0 to 100), Soybean (soybean [6]; Rate 4 g/ha)
20: Plant response rating (0 to 100), Barley Igri (barley [4]; Rate 1 g/ha) | Plant response rating (0 to 100), Ryegrass (ryegrass; Rate 4 g/ha)
5: Plant response rating, Cheatgrass (cheatgrass; POSTEMERGENCE, Rate 50 g/ha) | Plant response rating, Giant foxtail (giant foxtail; POSTEMERGENCE, Rate 50 g/ha)
4: Plant response rating, Barley (barley [1]; POSTEMERGENCE, Rate 10 g/ha) | Plant response rating, Barley (barley [1]; POSTEMERGENCE, Rate 50 g/ha) | Plant response rating, Blackgrass (blackgrass; POSTEMERGENCE, Rate 10 g/ha) | Plant response rating, Blackgrass (blackgrass; PREEMERGENCE, Rate 10 g/ha) | Plant response rating, Cheatgrass (cheatgrass; POSTEMERGENCE, Rate 10 g/ha) | Plant response rating, Crabgrass (crabgrass; POSTEMERGENCE, Rate 50 g/ha) | Plant response rating, Giant foxtail (giant foxtail; POSTEMERGENCE, Rate 10 g/ha)
40: Plant response rating Barley Igri (barley [4]; 62 g/ha, 0 to 100 scale) | Plant response rating (0 to 100), Barley Igri (barley [4]; Rate 16 g/ha)
80: Plant response rating (0 to 100), Lambsquarters (lambsquarters [5]; Rate 1 g/ha) | Plant response rating (0 to 100), Sugar beet (sugar beet; Rate 4 g/ha)
9: Plant response rating, Crabgrass (crabgrass; PREEMERGENCE, Rate 50 g/ha) | Plant response rating, Lambsquarter (lambsquarters [2]; POSTEMERGENCE, Rate 10 g/ha)
30: Plant response rating (0 to 100), Barley Igri (barley [4]; Rate 4 g/ha) | Plant response rating Ryegrass (ryegrass; 62 g/ha, 0 to 100 scale) | Plant response rating (0 to 100), Ryegrass (ryegrass; Rate 16 g/ha)

— patent publication US6358885B1, “Substituted phenylheterocyclic herbicides” (Mississippi State University, priority 1992, dated 2002)
